This assay concerns the target P2Y purinoceptor 6 (Homo sapiens, UniProt Q15077). Description: Stimulation of phospholipase C in 1321N1 astrocytoma cells transfected with human P2Y6 receptor. It counts as cell-based.

One may read the EC50 as the midpoint of the concentration-response curve.

Sequence of P2Y purinoceptor 6 (Q15077 whole entry): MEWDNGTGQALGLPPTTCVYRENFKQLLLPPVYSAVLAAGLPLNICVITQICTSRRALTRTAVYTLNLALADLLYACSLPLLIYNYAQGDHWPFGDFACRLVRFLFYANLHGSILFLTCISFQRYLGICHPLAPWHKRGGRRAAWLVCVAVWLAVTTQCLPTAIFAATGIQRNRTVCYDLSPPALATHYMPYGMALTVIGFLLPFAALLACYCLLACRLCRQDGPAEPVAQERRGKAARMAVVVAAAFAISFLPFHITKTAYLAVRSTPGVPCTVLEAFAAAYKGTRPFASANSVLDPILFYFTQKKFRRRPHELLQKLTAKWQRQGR

As to `O=c1ccn([C@@]23C[C@H](O)[C@@H](COP(=O)(O)OP(=O)(O)O)[C@@H]2C3)c(=O)[nH]1`, the EC50 (read-out: EC50) was 230 nM.
With `O=c1ccn([C@H]2[C@H](O)[C@H](O)[C@@]3(COP(=O)(O)OP(=O)(O)O)C[C@H]23)c(=O)[nH]1`, the concentration for a half-maximal effect (EC50) entry is on record as “Not Active”.
`O=c1ccn([C@H]2C[C@H](O)[C@@H](COP(=O)(O)OP(=O)(O)O)O2)c(=O)[nH]1`: the concentration giving a half-maximal response (EC50) (read-out: EC50) was found to be 1720 nM.
Same read-out and setting: the same measure for `O=c1ccn([C@@H]2O[C@H](COP(=O)(O)OP(=O)(O)O)[C@@H](O)[C@H]2O)c(=O)[nH]1` [URIDINE_DIPHOSPHATE]: 86 nM.

The values are drawn from ChEMBL document CHEMBL1140428, “Human P2Y(6) receptor: molecular modeling leads to the rational design of a novel agonist based on a unique conformational preference” (J Med Chem, 2005).
